Measurements: the NIST ThermoML archive (doi:10.1016/j.fluid.2018.10.006)

Settings: Fluid (supercritical or subcritical phases), Coaxial cylinder method

CCCCCC [hexane]
thermal conductivity [W/m/K]
Settings | 525.42 K | 553 K
1000 kPa | – | 0.04354
1120 kPa | – | 0.0439
1400 kPa | – | 0.04407
1500 kPa | – | 0.04431
1600 kPa | – | 0.04443
1700 kPa | – | 0.04455
1800 kPa | – | 0.0448
1900 kPa | – | 0.04493
2000 kPa | – | 0.04518
2100 kPa | – | 0.04543
2200 kPa | – | 0.04556
2300 kPa | – | 0.04582
2400 kPa | – | 0.04608
2500 kPa | – | 0.04635
2600 kPa | – | 0.04661
2700 kPa | – | 0.04688
2800 kPa | – | 0.04716
2900 kPa | – | 0.04743
3000 kPa | – | 0.04743
3100 kPa | – | 0.04814
3200 kPa | – | 0.04857
3300 kPa | – | 0.04897
3400 kPa | – | 0.04942
3500 kPa | – | 0.05003
3600 kPa | – | 0.0505
3700 kPa | – | 0.05127
3800 kPa | – | 0.05191
3900 kPa | – | 0.05255
4000 kPa | – | 0.05325
4100 kPa | – | 0.05395
4200 kPa | – | 0.05468
4268 kPa | – | 0.05523
4390 kPa | – | 0.05618
4700 kPa | – | 0.0589
4800 kPa | – | 0.05987
4900 kPa | – | 0.06075
5000 kPa | – | 0.06166
5300 kPa | – | 0.06418
5500 kPa | – | 0.06559
5800 kPa | – | 0.06746
6000 kPa | – | 0.06843
6300 kPa | – | 0.06974
6500 kPa | – | 0.07019
6800 kPa | – | 0.07109
7000 kPa | – | 0.0717
7200 kPa | – | 0.07202
7500 kPa | – | 0.07265
7800 kPa | – | 0.07329
8000 kPa | – | 0.07361
8300 kPa | – | 0.07427
8500 kPa | – | 0.07427
8800 kPa | – | 0.07545
9000 kPa | – | 0.07545
9250 kPa | – | 0.07562
9500 kPa | – | 0.07582
9800 kPa | – | 0.07617
9900 kPa | 0.07737 | –
10000 kPa | – | 0.07635
10150 kPa | 0.07772 | –
10200 kPa | 0.07779 | –
10300 kPa | 0.07793 | 0.07652
10400 kPa | 0.07804 | –
10500 kPa | 0.07815 | 0.07688
10600 kPa | 0.07833 | –
10800 kPa | 0.07855 | 0.07716
11000 kPa | – | 0.0773
11500 kPa | 0.07941 | 0.07777
11600 kPa | 0.07956 | –
11800 kPa | 0.07975 | –
12000 kPa | 0.07994 | 0.07832
12300 kPa | 0.08032 | 0.07869
12500 kPa | 0.08048 | –
12870 kPa | – | 0.07914
13500 kPa | – | 0.07983
14000 kPa | – | 0.08021
14500 kPa | – | 0.08068
15000 kPa | – | 0.08119
